Test results from patent publication EP2902035B1, “Cell-permeable peptide inhibitors of the JNK signal transduction pathway for use in the treatment of inflammatory eye diseases” (Xigen Inflammation Ltd., priority 2010, dated 2012).

Legend:
[1] = test system: iNOS mRNA; assay: iNOS expression in ocular tissues by semi-quantitative PCR in EIU; format: in vivo, Lewis rats; details: retinas
Procedure: Retinas and RPE/choroid/sclera complexes were also collected at 24 hours to analyze iNOS mRNA levels by RT-PCR and c-Jun phosphorylation state by Western-Blot. Tissues were collected only from eyes treated by IV (intravenous) injection of vehicle, IV injection of the JNK-inhibitor (poly-)peptide of SEQ ID NO: 11, IVT (intravitreal) injection of vehicle and IVT injection of the JNK-inhibitor (poly-)peptide of SEQ ID NO: 11 (n=2 eyes per condition collected from separate rats). Eyes were selected so that their EIU clinical score was representative of the mean of the experimental group they belong to, i.e 3 for eyes treated by IV and IVT injection of vehicle and 2 for eyes treated by IV or IVT injection of the JNK-inhibitor (poly-)peptide of SEQ ID NO: 11.
Two eyes per group were used for this analysis. Immediately after dissection, retinas extracted from each eye were separately snap frozen and stored at -80°C until use. Total RNA was extracted from tissues (RNeasy minikit, Qiagen, Courtaboeuf, France) according to the manufacturer's instructions. […] PCR fragments (162 bp for GAPDH and 657 bp for iNOS) were analyzed by 2.5% agarose gel electrophoresis and visualized by ethidium bromide staining under UV light. The relative band intensity for iNOS was calculated in comparison to that for GAPDH after densitometry analysis (ImageJ software).

[2] = test system: chemokines/ cytokines in the serum; assay: Chemokine/Cytokine Multiplex Assay on serum in EIU; format: in vivo, Lewis rats; details: tendency, not statistically significant
Procedure: Aqueous humor and vitreous were collected and pooled from each enucleated eye. Ocular fluids were immediately centrifuged and the cell-free fractions were collected and frozen at -20°C before analysis by Multiplex assay. Blood samples were first clotted at room temperature for 2 hours and then at 4°C overnight. Serum was collected, centrifuged and the clear supernatant was collected and frozen at -20°C before Multiplex analysis.
In a first set of experiment, 70 rats were randomized into 14 experimental groups with 5 rats per group. Uveitis was induced in each group and rats were killed 6 hours (4 groups), 24 hours (6 groups) and 48 hours (4 groups) after LPS challenge. For each time point tested (i.e. 6h, 24h and 48h), rats treated by intravenous or intravitreous injections of vehicle (NaCl 0.9%) or the JNK-inhibitor (poly-)peptide of SEQ ID NO: 11 were compared to untreated control uveitic rats. Two additional groups, treated by intravenous injection of vehicle and intravitreal injection of dexamethasone were used at 24 hours. Clinical ocular inflammation was recorded only at 24 hours (see Scoring of Endotoxin-Induced Uveitis (EIU) section). At each time point, intraocular fluids from each eye (n=10 per group) and serum from each animal (n=5 per group) were used for Chemokine/Cytokine Multiplex Assay.
Intraocular fluids (diluted to obtain a final volume of 25 µL) and sera (25 µL of 1:5 dilution) were subjected to multiplex bead analysis. This method uses microspheres as the solid support for immunoassays 12 and allows the titration of a greater number of cytokines with increased sensitivity than occurs with ELISA.13 For each sample, seventeen analytes were quantified simultaneously using the rat Cytokine/Chemokine-17plex kit (Milliplex Map Kit, Millipore, Saint-Quentin-en-Yvelines, France) according to the manufacturer's instructions: Chemokines MCP-1/CCL2, MIP-1α/CCL3, RANTES/CCL5, IP-10/CXCL10 (IFN-inducible protein-10) and GRO/KC; proinflammatory mediators IL-1, IL-18 and TNF-; Th1/Th2/Th17 cytokines IL-2 and IFN- / IL-4, IL-5, IL-6, IL-10 and IL-13 / IL-17. […]

With `CC(C)C[C@@H](NC(=O)[C@@H](Cc1ccccc1)NC(=O)[C@H]1CCCN1C(=O)[C@@H](CCC(N)=O)NC(=O)[C@H](NC(=O)[C@H]1CCCN1C(=O)[C@@H](CCCNC(=N)N)NC(=O)[C@@H](CO)NC(=O)[C@@H](CCC(N)=O)NC(=O)[C@H](N)CC(=O)O)C(C)C)C(=O)N[C@H](CC(N)=O)C(=O)N[C@H](CC(C)C)C(=O)N[C@@H](C(=O)N[C@@H](C(=O)N1CCC[C@@H]1C(=O)N[C@H](CCCNC(=N)N)C(=O)N[C@H](CCCCN)C(=O)N1CCC[C@@H]1C(=O)N[C@H](CCCNC(=N)N)C(=O)N1CCC[C@@H]1C(=O)N1CCC[C@@H]1C(=O)N[C@H](CCCNC(=N)N)C(=O)N[C@H](CCCNC(=N)N)C(=O)N[C@H](CCCNC(=N)N)C(=O)N[C@H](CCC(N)=O)C(=O)N[C@H](CCCNC(=N)N)C(=O)N[C@H](CCCNC(=N)N)C(=O)N[C@H](CCCCN)C(=O)N[C@H](CCCCN)C(=O)N[C@H](CCCNC(=N)N)C(=O)NCC(=O)O)[C@H](C)O)[C@H](C)O` [SEQ ID NO: 11] as the compound, how does the “Levels of iNOS mRNA (relative band intensity in comparison to GAPDH)” value ([1]; 24 hours after IV) read?
The value was 0.40 ± 0.11.

And the “Levels of iNOS mRNA (relative band intensity in comparison to GAPDH)” value ([1]; 24 hours after IVT injection)?
The value was 0.27 ± 0.09.

And the IL-2 ([2]; after IV administration)?
Its IL-2 is “reduction”.

And the MIP-1α ([2]; after IV administration)?
The MIP-1α was “reduction”.

And the IL-2 ([2]; after IVT)?
The IL-2 was “reduction”.
